Measurements taken from patent EP0043274A2, “Antithrombotic treatment” (priority 1980, dated 1982).

Assays:
platelet rich plasma = test: Platelet aggregation in platelet rich plasma from injected rabbit (ex vivo); conditions: injected with about 72 mg/kg of body weight; blood sample after 5 hours
Experimental: (§1) A rabbit is injected with about +72 mg/kg of body weight of triethyl amine bisulfite. After a period of 5 hours, a blood sample was withdrawn and centrifuged at 1000 r.p.m. (220 g) for 10 minutes to give a platelet rich plasma. […] It is concluded that triethyl amine bisulfite is an agent which inhibits thrombotic condition formation in vivo.
as §1, with “72” for “+72”, “sodium formaldehyde” for “triethyl amine”, “minuts” for “minutes”, “thrombus” for “thrombotic condition”

FIBRINOGEN = target: T1, FIBRINOGEN (Homo sapiens, UniProt P02671+P02675+P02679); test: Coagulation factor assay (Biggs): fibrinogen; format: biochemical; conditions: mean of 2 experiments; control 205
T1 construct: from tissue; host or cells: human plasma
T1 sequence (P02671 20-629 limits assumed): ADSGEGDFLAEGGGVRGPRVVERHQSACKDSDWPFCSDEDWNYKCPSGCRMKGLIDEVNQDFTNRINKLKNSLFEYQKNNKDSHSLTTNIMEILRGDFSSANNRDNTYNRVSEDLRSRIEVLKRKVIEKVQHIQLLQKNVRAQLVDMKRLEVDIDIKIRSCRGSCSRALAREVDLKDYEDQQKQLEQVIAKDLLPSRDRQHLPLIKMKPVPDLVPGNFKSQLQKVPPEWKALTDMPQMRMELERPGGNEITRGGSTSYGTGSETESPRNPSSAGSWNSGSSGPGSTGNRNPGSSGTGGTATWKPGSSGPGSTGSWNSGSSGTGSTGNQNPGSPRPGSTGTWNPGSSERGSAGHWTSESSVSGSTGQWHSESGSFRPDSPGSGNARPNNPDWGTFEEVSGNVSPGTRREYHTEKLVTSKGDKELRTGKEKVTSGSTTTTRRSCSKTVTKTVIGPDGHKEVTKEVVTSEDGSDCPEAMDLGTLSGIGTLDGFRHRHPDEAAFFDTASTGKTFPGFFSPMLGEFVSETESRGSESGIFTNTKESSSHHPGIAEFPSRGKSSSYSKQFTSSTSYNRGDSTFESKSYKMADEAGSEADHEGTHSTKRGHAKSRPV
T1 sequence (P02675 31-491): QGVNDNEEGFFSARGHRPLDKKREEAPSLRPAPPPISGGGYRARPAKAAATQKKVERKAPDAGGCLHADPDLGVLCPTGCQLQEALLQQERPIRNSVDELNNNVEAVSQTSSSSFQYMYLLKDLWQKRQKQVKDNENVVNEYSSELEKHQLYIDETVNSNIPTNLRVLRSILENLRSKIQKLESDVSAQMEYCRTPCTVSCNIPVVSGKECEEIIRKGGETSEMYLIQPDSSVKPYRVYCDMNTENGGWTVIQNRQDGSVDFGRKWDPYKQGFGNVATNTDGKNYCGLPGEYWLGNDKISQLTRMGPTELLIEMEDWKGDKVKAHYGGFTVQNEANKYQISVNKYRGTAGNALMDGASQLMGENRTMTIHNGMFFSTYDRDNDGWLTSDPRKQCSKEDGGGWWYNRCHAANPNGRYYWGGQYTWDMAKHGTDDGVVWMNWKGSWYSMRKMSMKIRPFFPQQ
T1 sequence (P02679 27-453): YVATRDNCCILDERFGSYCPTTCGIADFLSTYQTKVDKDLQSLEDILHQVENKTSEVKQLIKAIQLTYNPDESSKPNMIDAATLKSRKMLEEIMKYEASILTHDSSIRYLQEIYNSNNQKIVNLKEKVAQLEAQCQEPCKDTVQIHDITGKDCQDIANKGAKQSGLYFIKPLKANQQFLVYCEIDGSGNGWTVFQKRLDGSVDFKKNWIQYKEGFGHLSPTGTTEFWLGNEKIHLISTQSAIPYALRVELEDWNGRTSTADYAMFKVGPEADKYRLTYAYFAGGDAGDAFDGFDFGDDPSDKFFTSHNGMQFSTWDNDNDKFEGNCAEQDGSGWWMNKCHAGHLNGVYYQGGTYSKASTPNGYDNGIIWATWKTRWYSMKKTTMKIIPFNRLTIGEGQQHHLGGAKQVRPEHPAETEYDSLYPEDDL

PROTHROMBIN = target: T2, PROTHROMBIN (Homo sapiens, UniProt P00734); test: Coagulation factor assay (Biggs): prothrombin (Factor II); format: biochemical; conditions: for PROTHROMBIN (%): U.S.P. grade, control 87
T2 construct: from tissue; host or cells: human plasma
Experimental: (§2) The effect of U.S.P. grade sodium bisulfite on blood coagulation factors is evaluated by standard procedures (Biggs) and the results are shown in Table III below.
References for PT, PTT, and assays of all the coagulation factors can be found in a standard textbook, entitled "Human Blood Coagulation, Haemostasis and Thrombosis", edited by Rosemary Biggs, published by Blackwell Scientific Publications, Oxford, England (2nd edition), pages 670-705, 1976.

human plasma = test: Thrombin time (TT) in vitro, standard method; format: biochemical; conditions: U.S.P. grade, control 12.00
Experimental: as §2

rat plasma = test: Blood coagulation tests (PT, PTT, coagulation factors) in vitro; format: biochemical
Text: The alkali metalbisulfites, sodium and potassium, and ammonium bisulfite are found to prolong PT and PTT in a dose-related fashion.

[1] = system: human platelet rich plasma; test: Platelet aggregation in platelet rich plasma, platelet aggregometer (technique of Born); format: cell-based; conditions: 1 millimole (mM); induced by optimal concentrations of ADP, collogen, epinephrine, and arachidonic acid
Text: A present preference for purposes of evaluating an - antithrombotic effect is to withdraw samples of blood from a patient undergoing treatment and to measure platelet aggregation. One method is described in the paper by Born in Nature 194, pp. 927-929 (1962), which may be used for this purpose if desired.
That sodium bisulfite is an antiplatelet aggregatory agent is shown by using a platelet aggregometer based on the technique of Born (above cited).
(§3) Platelet rich plasma from rabbit and men was prepared by the centrugation technique referenced in Example 13. Using ADP (adosine diphosphate) as a stimulus rapid aggregation of platelets occurred. […] This procedure is described in the article by Born in Nature, Vol. 194, pgs. 927-929 (1962).
as §3, with “rabbits” for “rabbit”, “diphosphate) arachidonic acid” for “diphosphate)”, “stimulus,” for “stimulus”, “Born,” for “Born in”

Molecule: CCN(CC)CC.O=S(O)O [TRIETHYL AMINE BISULFITE, triethyl amine bisulfite]
- aggregation of platelets in comparison with an untreated rabbit (platelet rich plasma): markedly decreased

Molecule: C[N+](C)(C)C [Tetramethyl-ammonium bisulfite]
- Fibrinogen (%) (FIBRINOGEN): 170%

Molecule: Sodium bisulfite
- effect on Factor II (PROTHROMBIN): mildly affected
- PROTHROMBIN (%) (PROTHROMBIN; 0.01 mg/ml): 79%
- PROTHROMBIN (%) (PROTHROMBIN; 0.05 mg/ml): 80%
- PROTHROMBIN (%) (PROTHROMBIN; 0.1 mg/ml): 72%
- PROTHROMBIN (%) (PROTHROMBIN; 0.5 mg/ml): 40%
- PROTHROMBIN (%) (PROTHROMBIN; 1.0 mg/ml): 26%
- PROTHROMBIN (%) (PROTHROMBIN; 5.0 mg/ml): 5%
- TT (human plasma; 0.01 mg/ml): 12.07 s
- TT (human plasma; 0.05 mg/ml): 12.10 s
- TT (human plasma; 0.1 mg/ml): 12.00 s
- TT (human plasma; 0.5 mg/ml): 13.97 s
- TT (human plasma; 1.0 mg/ml): 16.08 s
- TT (human plasma; 5.0 mg/ml): 34.3 s
- PT and PTT (effect in words) (rat plasma; rat plasma in vitro, 0.5 mg/ml): significantly prolong
- blood coagulation factors (rat plasma; rat plasma, compared with human plasma): not as sensitive
- platelet aggregation [1]: abolishes platelet aggregation
